Source: patent publication US8309726B2, “Substituted piperazine compounds of formula 8” (Council of Scientific & Industrial Research, priority 2007, dated 2012)

Key:
[1] = tested on: Leukemia cancer cell lines; experiment: In vitro cytotoxicity, leukemia panel; assay type: cell-based; conditions: Homo sapiens, average of six to nine different cancer cell lines, 48 h, SRB, read-out: Log GI50 (concentration in mol/L causing 50% growth inhibition) (converted)
Experimental: (§1) In vitro evaluation of cytotoxic activity: Compounds were evaluated for in vitro anticancer activity against sixty human tumour cells derived from nine cancer types (colon, prostate, oral, lung, cervix and breast cancer) as shown in (Table 1, 2 and 3) 8b, 8c, 8d, and 8e, were evaluated for in vitro anticancer activity against sixty human tumour cells derived from nine cancer types (leukemia, non-small-cell lung, colon, CNS, melanoma, ovarian, prostate, and breast cancer) as shown in (Table 2 and 3). For the compound, dose response curves for each cell line were measured at a minimum of five concentrations at 10 fold dilutions. A protocol of 48 h continuous drug exposure was used and a sulforhodamine B (SRB) protein assay was used to estimate cell viability or growth. The concentration causing 50% cell growth inhibition (GI50), total cell growth inhibition (TGI 0% growth) and 50% cell death (LC50, −50% growth) compared with the control was calculated. The mean graph midpoint values of log10 TGI and log10 LC50 as well as log10 GI50 for 8a, 8b, 8c, 8d, and 8e, are listed in (Table 2 and 3).
(§2) Each cancer type represents the average of six to nine different cancer cell lines. The compounds 8a, 8b, 8c, 8d, 8e and 8f were evaluated for in vitro anticancer activity against sixty human tumour cells derived from nine cancer types (leukemia, colon, prostate, renal melanoma CNS, lung, cervix and breast cancer) as shown in Table 3. Compounds 8b, 8c, 8d and 8e show promising cytotoxicity against some cancer cell lines (Table 2). Compounds 8b, 8c, 8d and 8e have been evaluated for their in vitro cytotoxicity in selected human cancer cell lines of colon (Colo205), lung (Hop-62), cervix (SiHa), prostate (DU145, PC3), oral (DWD, HT1080), and breast (MCF7, Zr-75-1) origin. A protocol of 48 h continuous drug exposure has been used and an […] has been used to estimate cell viability or growth. The results are expressed as percent of cell growth determined relative to that of untreated control cells. […] In the breast cancer panel, the growth of BT-549, MCF-7 cell lines are 10.3, and 17.6. In the prostate cancer panel, the growth of DU-145, PC-3 cell lines are 11.3, and 19.2. The GI50 values of compound In the CNS cancer panel, the growth of SF-539, SNB-75 cell lines are […]. […] In vitro cytotoxicity of compounds 8a, and 8b in selected cancer cell lines has been illustrated in Table 3. The average GI50 values for each cancer panel of compounds 8b, 8c, 8d and 8e have been illustrated in above Table 2 and 3

calf thymus (CT) DNA = experiment: Thermal denaturation studies with duplex-form calf thymus DNA; assay type: binding; conditions: for ΔTm (° C.) after incubation at 37° C. for 0 h / ΔTm (° C.) after incubation at 37° C. for 18 h / ΔTm (° C.) after incubation at 37° C. for 36 h: [ANCD]/[DNA] molar ratio 1:5, CT-DNA 100 μM, ligand 20 μM, sodium phosphate buffer pH 7.00; for ΔTm (° C.) after incubation at 37° C. for 0 h: 0 h at 37° C.; for ΔTm (° C.) after incubation at 37° C. for 18 h: 18 h at 37° C.; for ΔTm (° C.) after incubation at 37° C. for 36 h: 36 h at 37° C.; for Course of ΔTm over incubation at 0 hr, 18 hr and 36 hr: incubation at 37° C., [ANCD]/[DNA] 1:5
Experimental: Compounds were subjected to thermal denaturation studies with duplex-form calf thymus DNA (CT-DNA) using an adaptation of a reported procedure. Working solutions in aqueous buffer (10 mM NaH2PO4/Na2HPO4, 1 mM Na2EDTA, pH 7.00+/−0.01) containing CT-DNA (100 μM in phosphate) and the PBD (20 μM) were prepared by addition of concentrated ANCD solutions in DMSO to obtain a fixed [ANCD]/[DNA] molar ratio of 1:5. The DNA-ANCD solutions were incubated at 37° C. for 0, 18, and 36 h prior to analysis. Samples were monitored at 260 nm using a Beckman DU-7400 spectrophotometer fitted with high performance temperature controller, and heating was applied at 1° C. min^−1 in the 40-90° C. range. DNA helix coil transition temperatures (Tm) were obtained from the maxima in the (dA260)/dT derivative plots. Results are given as the mean+/−standard deviation from three determinations and are corrected for the effects of DMSO co-solvent using a linear correction term. Drug-induced alterations in DNA melting behaviour are given by: ΔTm=Tm (DNA+ANCD)−Tm (DNA alone), where the Tm value for the ANCD-free CT-DNA is 69.0+/−0.01.

[2] = tested on: Prostate cancer cell lines; experiment: In vitro cytotoxicity, prostate panel; assay type: cell-based; conditions: Homo sapiens, average of six to nine different cancer cell lines, 48 h, SRB, read-out: Log GI50 (concentration in mol/L causing 50% growth inhibition) (converted)
Experimental: as §1, §2

Breast cancer cell lines = experiment: In vitro cytotoxicity, breast panel; assay type: cell-based; conditions: Homo sapiens, average of six to nine different cancer cell lines, 48 h, SRB, read-out: Log GI50 (concentration in mol/L causing 50% growth inhibition) (converted)
Experimental: as §1, §2

[3] = tested on: Nonsmall-cell-lung cancer cell lines; experiment: In vitro cytotoxicity, non-small-cell lung panel; assay type: cell-based; conditions: Homo sapiens, average of six to nine different cancer cell lines, 48 h, SRB, read-out: Log GI50 (concentration in mol/L causing 50% growth inhibition) (converted)
Experimental: as §1, §2

Colon cancer cell lines = experiment: In vitro cytotoxicity, colon panel; assay type: cell-based; conditions: Homo sapiens, average of six to nine different cancer cell lines, 48 h, SRB, read-out: Log GI50 (concentration in mol/L causing 50% growth inhibition) (converted)
Experimental: as §1, §2

human tumour cell lines = experiment: In vitro anticancer activity against sixty human tumour cell lines (NCI, SRB assay); assay type: cell-based; conditions: for Log10LC50 mean graph midpoint (MG_MID): 50% cell death; for Log10LC50 mean graph midpoint (MG_MID) / Log10GI50 mean graph midpoint (MG_MID) / Log10TGI50 mean graph midpoint (MG_MID): 48 h continuous drug exposure, SRB assay; for Log10GI50 mean graph midpoint (MG_MID): 50% cell growth inhibition; for GI50: Homo sapiens; for antiproliferative activity: against most of the tested cell lines; for Log10TGI50 mean graph midpoint (MG_MID): total cell growth inhibition
Experimental: as §1, §2

CNS cancer cell lines = experiment: In vitro cytotoxicity, CNS panel; assay type: cell-based; conditions: Homo sapiens, average of six to nine different cancer cell lines, 48 h, SRB, read-out: Log GI50 (concentration in mol/L causing 50% growth inhibition) (converted)
Experimental: as §1, §2

[4] = tested on: Melanoma cancer cell lines; experiment: In vitro cytotoxicity, melanoma panel; assay type: cell-based; conditions: Homo sapiens, average of six to nine different cancer cell lines, 48 h, SRB, read-out: Log GI50 (concentration in mol/L causing 50% growth inhibition) (converted)
Experimental: as §1, §2

Renal cancer cell lines = experiment: In vitro cytotoxicity, renal panel; assay type: cell-based; conditions: Homo sapiens, average of six to nine different cancer cell lines, 48 h, SRB, read-out: Log GI50 (concentration in mol/L causing 50% growth inhibition) (converted)
Experimental: as §1, §2

[5] = tested on: Ovarian cancer cell lines; experiment: In vitro cytotoxicity, ovarian panel; assay type: cell-based; conditions: Homo sapiens, average of six to nine different cancer cell lines, 48 h, SRB, read-out: Log GI50 (concentration in mol/L causing 50% growth inhibition) (converted)
Experimental: as §1, §2

[6] = sixty cell lines in nine cell panels

COc1cc(C(=O)N2CCN(c3ccccc3OC)CC2)c(N)cc1OCc1ccccc1 [Compound 8a, [2-amino-4-(benzyloxy)-5-methoxyphenyl][4-(2-methoxyphenyl)piperazino]methanone]
GI50 [1]: 5.5 µM | ΔTm (° C.) after incubation at 37° C. for 0 h (calf thymus (CT) DNA): 1.2 °C | ΔTm (° C.) after incubation at 37° C. for 18 h (calf thymus (CT) DNA): 1.7 °C | ΔTm (° C.) after incubation at 37° C. for 36 h (calf thymus (CT) DNA): 2.2 °C | Course of ΔTm over incubation at 0 hr, 18 hr and 36 hr (calf thymus (CT) DNA): gradually increased | GI50 [2]: 6.61 µM | GI50 (Breast cancer cell lines): 3.39 µM | GI50 [3]: 3.63 µM | GI50 (Colon cancer cell lines): 8.51 µM | Log10LC50 mean graph midpoint (MG_MID) (human tumour cell lines): −4.19 | Log10GI50 mean graph midpoint (MG_MID) (human tumour cell lines): −5.47 | GI50 (human tumour cell lines; [6]): < 20 µM | antiproliferative activity (human tumour cell lines): nanomolar to low micromolar concentrations | Log10TGI50 mean graph midpoint (MG_MID) (human tumour cell lines): −5.24 | GI50 (CNS cancer cell lines): 5.89 µM | GI50 [4]: 4.47 µM | GI50 (Renal cancer cell lines): 5.62 µM | GI50 [5]: 5.75 µM

COc1cc(C(=O)N2CCN(c3ncccn3)CC2)c(N)cc1OCc1ccccc1 [Compound 8c, [2-amino-4-(benzyloxy)-5-methoxyphenyl][4-(2-pyrimidinyl)piperazino]methanone]
GI50 [1]: 5.5 µM | ΔTm (° C.) after incubation at 37° C. for 0 h (calf thymus (CT) DNA): 1.4 °C | ΔTm (° C.) after incubation at 37° C. for 18 h (calf thymus (CT) DNA): 1.6 °C | ΔTm (° C.) after incubation at 37° C. for 36 h (calf thymus (CT) DNA): 2.3 °C | Course of ΔTm over incubation at 0 hr, 18 hr and 36 hr (calf thymus (CT) DNA): gradually increased | GI50 [2]: 16.6 µM | GI50 (Breast cancer cell lines): 6.76 µM | GI50 [3]: 7.24 µM | GI50 (Colon cancer cell lines): 3.39 µM | Log10LC50 mean graph midpoint (MG_MID) (human tumour cell lines): −4.47 | Log10GI50 mean graph midpoint (MG_MID) (human tumour cell lines): −5.47 | antiproliferative activity (human tumour cell lines): nanomolar to low micromolar concentrations | Log10TGI50 mean graph midpoint (MG_MID) (human tumour cell lines): −5.47 | GI50 (CNS cancer cell lines): 5.89 µM | GI50 [4]: 1.78 µM | GI50 (Renal cancer cell lines): 5.62 µM | GI50 [5]: 5.75 µM

COc1cc(C(=O)NC2c3ccccc3-c3ccccc32)c(N)cc1OCc1ccccc1 [Compound 8e, N1-(9H-9-fluorenyl)-2-amino-4-(benzyloxy)-5-methoxybenzamide]
GI50 [1]: 4.27 µM | ΔTm (° C.) after incubation at 37° C. for 0 h (calf thymus (CT) DNA): 1.9 °C | ΔTm (° C.) after incubation at 37° C. for 18 h (calf thymus (CT) DNA): 2.3 °C | ΔTm (° C.) after incubation at 37° C. for 36 h (calf thymus (CT) DNA): 2.8 °C | Course of ΔTm over incubation at 0 hr, 18 hr and 36 hr (calf thymus (CT) DNA): gradually increased | GI50 [2]: 0.355 µM | GI50 (Breast cancer cell lines): ≤ 0.01 µM | GI50 [3]: 1.38 µM | GI50 (Colon cancer cell lines): 1.7 µM | Log10LC50 mean graph midpoint (MG_MID) (human tumour cell lines): −4.19 | Log10GI50 mean graph midpoint (MG_MID) (human tumour cell lines): −6.47 | GI50 (human tumour cell lines; fifty-seven cell lines in nine cancer cell panels): < 10 µM | GI50 (human tumour cell lines; [6]): < 20 µM | antiproliferative activity (human tumour cell lines): nanomolar to low micromolar concentrations | Log10TGI50 mean graph midpoint (MG_MID) (human tumour cell lines): −6.06 | GI50 (CNS cancer cell lines): 5.5 µM | GI50 [4]: 1.78 µM | GI50 (Renal cancer cell lines): 15.1 µM | GI50 [5]: 10 µM

COc1cc(C(=O)N2CCN(c3ccccc3OC)CC2)c(NC(=O)c2cnccn2)cc1OCc1ccccc1 [Compound 8f, (4-(Benzyloxy)-5-methoxy-2-(pyrazine-2-carbamido)phenyl)(4-(2-methoxyphenyl)piperazin-1-yl)methanone]
ΔTm (° C.) after incubation at 37° C. for 0 h (calf thymus (CT) DNA): 1.3 °C | ΔTm (° C.) after incubation at 37° C. for 18 h (calf thymus (CT) DNA): 2.1 °C | ΔTm (° C.) after incubation at 37° C. for 36 h (calf thymus (CT) DNA): 3.0 °C | Course of ΔTm over incubation at 0 hr, 18 hr and 36 hr (calf thymus (CT) DNA): gradually increased

COc1cc(C(=O)Nc2ccc(S(=O)(=O)c3ccc(NC(=O)c4cc(OC)c(OCc5ccccc5)cc4N)cc3)cc2)c(N)cc1OCc1ccccc1 [Compound 8h, N1-4-[(4-[2-amino-4-(benzyloxy)-5-methoxybenzoyl]aminophenyl)sulfonyl]phenyl-2-amino-4-(benzyloxy)-5-methoxybenzamide]
ΔTm (° C.) after incubation at 37° C. for 0 h (calf thymus (CT) DNA): 1.5 °C | ΔTm (° C.) after incubation at 37° C. for 18 h (calf thymus (CT) DNA): 2.3 °C | ΔTm (° C.) after incubation at 37° C. for 36 h (calf thymus (CT) DNA): 2.4 °C | Course of ΔTm over incubation at 0 hr, 18 hr and 36 hr (calf thymus (CT) DNA): gradually increased

COc1cc(C(=O)N2CCN(c3ccccc3OC)CC2)c(N)cc1OCCCN1CCN(c2ccccc2OC)CC1 [Compound 11, (2-amino-5-methoxy-4-3-[4-(2-methoxyphenyl)piperazino]propoxyphenyl)[4-(2-methoxyphenyl)piperazino]methanone]
ΔTm (° C.) after incubation at 37° C. for 0 h (calf thymus (CT) DNA): 1.4 °C | ΔTm (° C.) after incubation at 37° C. for 18 h (calf thymus (CT) DNA): 2.1 °C | ΔTm (° C.) after incubation at 37° C. for 36 h (calf thymus (CT) DNA): 2.1 °C | Course of ΔTm over incubation at 0 hr, 18 hr and 36 hr (calf thymus (CT) DNA): gradually increased

COc1cc2c(cc1O)N=CC1CCCN1C2=O (stereo not drawn) [DC-81, reference compound]
ΔTm (° C.) after incubation at 37° C. for 0 h (calf thymus (CT) DNA): 0.3 °C | ΔTm (° C.) after incubation at 37° C. for 18 h (calf thymus (CT) DNA): 0.7 °C

{2-amino-5-(methyloxy)-4[(phenylmethyl)oxy]phenyl}[4-({2-amino-5-(methyloxy)-4-[(phenylmethyl)oxy]phenyl}carbonyl)hexahydro-1-piperazinyl]methanone [Compound 8g]
ΔTm (° C.) after incubation at 37° C. for 0 h (calf thymus (CT) DNA): 1.6 °C | ΔTm (° C.) after incubation at 37° C. for 18 h (calf thymus (CT) DNA): 2.6 °C | ΔTm (° C.) after incubation at 37° C. for 36 h (calf thymus (CT) DNA): 2.9 °C | Course of ΔTm over incubation at 0 hr, 18 hr and 36 hr (calf thymus (CT) DNA): gradually increased
